In article PMC8350397, “GSK137, a potent small-molecule BCL6 inhibitor with in vivo activity, suppresses antibody responses in mice” (The Journal of Biological Chemistry, 2021):
Values after ≈ are worked out from the molar mass of the structure shown.

Experiments:
[1] = Pharmacokinetics in blood during the immunization study; assay type: in vivo; details: male, CD1, mouse, whole blood, po; for AUC: daily steady state, from simulated profiles; for Tmax: day 8; for Cmax: day 8, blood
Procedure: (§1) Male CD1 mice (30–40 g, 8–9 weeks of age) were randomized into study treatment groups, housed individually and allowed to acclimatize under standard laboratory conditions for a minimum of 5 days prior to commencement of the study. Mice received food and water ad libitum. The experiment was performed in a certified dedicated in vivo experimental laboratory at the GlaxoSmithKline Medicines Research Centre, Stevenage, United Kingdom. The four treatment groups were (1) unimmunized and untreated (naive group) (n = 4); (2) intraperitoneal vehicle (n = 13), (3) GSK137 15 mg/kg (n = 14), and (4) GSK137 30 mg/kg (n = 14). Groups (2) to (4) were given intraperitoneal immunization with TNP–KLH (100 μg) on day 0, vehicle was 1% methylcellulose in water + 0.1% sodium lauryl sulphate, and compound or vehicle was given to groups (2) to (4) by oral gavage three times per day from day −1 to day +12. Blood samples were collected by tail vein for measurement of compound, IgM and IgG levels on days 0, 5, 8, and 12 ahead of immunization/first daily dose. On day 8, blood samples were also taken (n = 7) at 0.5, 1.5, 3, 5, or 7 h after first daily dose. On day 12, spleens were collected, weighed, and placed into Dulbecco's modified Eagle's medium on wet ice for analysis by flow cytometry.
Mouse blood/water (50/50) samples were analyzed for GSK137 using an analytical method based on protein precipitation, followed by HPLC/MS–MS analysis. The lower limit of quantification for GSK137 was 1.2 ng/ml with a higher limit of quantification of 3000 ng/ml. A two-compartment PK model was used to describe the measured composite mean steady-state oral concentration–time profiles. A three times per day dose simulation was performed using the two-compartment PK model parameters generated to simulate the repeat dose concentration–time profile. All modelings were conducted in Phoenix64 (WinNonLin) version 8.1 (Pharsight).

[2] = test system: TNP-specific IgM and IgG responses; assay: TNP-KLH immunization model, serum anti-TNP antibodies; assay type: in vivo, mouse
Procedure: as §1
For antibody measurements, TNP–bovine serum albumin–coated plates were blocked, and then, standards or serum samples diluted 1:1000 or 1:2500 were incubated for 2 h at room temperature before biotinylated antimouse IgG or IgM antibodies were allowed to bind for 1 h at room temperature and detected using streptavidin-bound horseradish peroxidase incubated for 30 min, followed by the addition of 3,3′,5,5′-tetramethylbenzidine substrate for 15 min. The reaction was stopped, and the plates read at 450 nm by spectrophotometry. Plates were washed between each incubation step to remove unbound reagent. Data analysis was carried out in GraphPad Prism 5 (GraphPad Software, Inc) software using a four-parameter logistic fit of the standards response.

rat BCL6 and SMRT = molecular target: T1, rat BCL6 and SMRT (Rattus norvegicus, UniProt B2GUV8, C67R/C84N/C8Q); assay: BCL6 TR-FRET assay, rat BCL6 and SMRT; assay type: binding
T1 construct: BCL6-Flag-6H-Avi (5-129) C8Q, C67R, C84N proteins; Flag (C); 6H (His6) (C); made in house; host or cells: E. coli
Procedure: Human, mouse and rat BCL6-Flag-6H-Avi (5-129) C8Q, C67R, C84N proteins were expressed in E. coli according to standard procedures and purified on Ni-NTA, followed by ion exchange on a Source 30Q column and size exclusion on an Superdex 200 column in a buffer of 20 mM Tris, 250 mM NaCl, 5 mM DTT, 5% glycerol, pH 8.5. All protein purities were estimated to be >90% by SDS-PAGE and the expected masses were confirmed by MS analysis. For TR-FRET assay protein was enzymatically biotinylated by treatment of protein at 100 µM with a 2 fold molar excess of biotin in the presence of 2 mM ATP and 1 µM BirA enzyme in a buffer of 50 mM bicine pH 8.3, 10 mM MgCl2 at 30 °C for 1 hour, followed by extensivedialysis against 50 mM Tris-Cl pH 8.0, 100 mM NaCl, 1 mM DTT using a 3.5 kDa cut-off membrane. Biotinylation was confirmed by MS analysis and concentration was determined by Bradford assay, after which protein was stored in aliquots at -80 °C.
Acceptor-labelled SMRT peptide H2N-[…](D2)-OH was dissolved in water by mass to give a 500 µM stock solution which was stored at -20 °C. Acceptor-labelled NCOR peptide H2N-[…](Alexa Fluor 647)-OH and acceptor-labelled BCOR peptide H2N-[…](Alexa Fluor 647)-OH were dissolved to a nominal concentration of 1 mM in DMSO, and stock solution concentration was determined by absorbance at 650 nm using an extinction coefficient of 270,000 M-1cm^-1. […]

[3] = Chromatographic log D / property forecast index; assay type: physicochemical
[4] = GSK in-house kinetic solubility assay (CAD); assay type: physicochemical; details: kinetic from dmso stock, charged aerosol detector

SMILES: Cc1ncccc1[C@H]1C[C@@H](c2cccc3nc(N)ccc23)Nc2c(F)cnn21 [GSK137, 5-((5S,7R)-3-Fluoro-7-(2-methylpyridin-3-yl)-4,5,6,7-tetrahydropyrazolo[1,5-a]pyrimidin-5-yl)quinolin-2-amine]
- AUC ([1]; 15 mg/kg orally TID): 3400 ng·h/mL
- Tmax ([1]; 15 mg/kg orally TID): 30 min
- Cmax ([1]; 15 mg/kg orally TID): 471 ± 226 ng/mL
- AUC ([1]; 30 mg/kg orally TID): 6810 ng·h/mL
- Tmax ([1]; 30 mg/kg orally TID): 30 min
- Cmax ([1]; 30 mg/kg orally TID): 1340 ± 141 ng/mL
- reduction of mean TNP-specific IgM levels vs vehicle ([2]; 15 mg/kg orally TID, day 12, p = 0.0027): 43%
- reduction of mean TNP-specific IgG levels vs vehicle ([2]; 15 mg/kg orally TID, day 12, p = 0.0056): 58%
- reduction of mean TNP-specific IgM levels vs vehicle ([2]; 30 mg/kg orally TID, day 12, p < 0.0001): 58%
- reduction of mean TNP-specific IgG levels vs vehicle ([2]; 30 mg/kg orally TID, day 12, p = 0.0023): 66%
- inhibition of TNP-specific IgM level ([2]; 15 and 30 mg/kg, day 5 or day 8): did not inhibit
- inhibition of serum TNP-specific IgG levels ([2]; 15 and 30 mg/kg, day 8): did not inhibit
- pIC50 Rat TR-FRET SMRT (rat BCL6 and SMRT): 7.6
- chromatographic logD ([3]; determined chromatographically, read-out: Chrom LogD): 2.3
- PFI (property forecast index) ([3]; log D modified for the number of aromatic rings): 6.3
- solubility [4]: 128 µg/mL (≈ 342 µM)
